Active and inactive are the calls of the source. The rule behind the calls is not given here.

The target of data set [1] is T1, von Hippel-Lindau disease tumor suppressor/Stimulator of interferon genes protein (Homo sapiens, UniProt P40337+Q86WV6). In words: PROTAC activity at VHL/STING (unknown origin) assessed as induction of protein degradation. It is filed as protein assay.
Target sequence in this assay (P40337 whole entry): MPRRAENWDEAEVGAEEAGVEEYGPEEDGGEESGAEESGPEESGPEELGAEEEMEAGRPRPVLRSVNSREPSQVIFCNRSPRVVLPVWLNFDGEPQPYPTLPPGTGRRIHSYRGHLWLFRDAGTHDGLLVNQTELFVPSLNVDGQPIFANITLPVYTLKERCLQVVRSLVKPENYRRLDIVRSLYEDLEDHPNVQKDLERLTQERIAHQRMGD
Target sequence in this assay (Q86WV6 whole entry): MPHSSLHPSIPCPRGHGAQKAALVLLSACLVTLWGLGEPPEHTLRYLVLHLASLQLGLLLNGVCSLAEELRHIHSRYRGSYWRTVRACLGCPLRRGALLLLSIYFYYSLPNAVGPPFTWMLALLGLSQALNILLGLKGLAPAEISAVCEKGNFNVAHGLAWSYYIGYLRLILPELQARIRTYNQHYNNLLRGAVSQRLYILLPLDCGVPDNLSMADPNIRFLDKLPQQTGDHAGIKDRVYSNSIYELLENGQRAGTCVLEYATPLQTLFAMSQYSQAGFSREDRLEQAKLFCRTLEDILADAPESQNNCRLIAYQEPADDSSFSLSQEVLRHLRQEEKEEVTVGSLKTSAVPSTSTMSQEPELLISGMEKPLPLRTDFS
Data set [2] has as its target T1, von Hippel-Lindau disease tumor suppressor/Stimulator of interferon genes protein. The experiment in a line: PROTAC activity at VHL/STING (unknown origin) assessed as induction of protein degradation relative to control. Format: protein assay.
Target sequence in this assay (P40337 whole entry, looked up): as the sequence (P40337 whole entry) above
Target sequence in this assay (Q86WV6 whole entry, looked up): as the sequence (Q86WV6 whole entry) above
Data set [3] addresses T2, Protein cereblon/Stimulator of interferon genes protein (Homo sapiens, UniProt Q96SW2+Q86WV6). The experiment in a line: PROTAC activity at CRBN/STING in human THP-1 cells assessed as induction of STING degradation at 10 uM incubated for 24 hrs by western blot analysis. Format: cell-based. In general terms: A western blot detects proteins with antibodies after separation by electrophoresis.

Data set [4] is described as follows: Cytotoxicity against HUVEC assessed as reduction in cell viability at 3.3 uM incubated for 48 hrs by MTT assay. The settings on record: human, HUVEC cells, read-out: INH. Format: toxicity, cell-based. On the technique in general: Tetrazolium assays rely on reduction of a dye to a coloured formazan, in cell work by metabolically active cells.
A short description of data set [5]: Cytotoxicity against HEK293T cells assessed as reduction in cell viability at 3.3 uM incubated for 48 hrs by MTT assay. The settings on record: human, read-out: INH. Format: toxicity, cell-based, HEK-293T.
Data set [6] has as its target T2, Protein cereblon/Stimulator of interferon genes protein. The experiment in a line: PROTAC activity at CRBN/STING in human THP-1 cells assessed as induction of STING degradation at 10 uM pretreated with proteasome inhibitor, MG132 for 1 hr followed by incubation with compound for 24 hrs by western blot analysis. It is filed as cell-based.

T2 sequence (Q86WV6 whole entry, looked up): as the sequence (Q86WV6 whole entry) above
T2 sequence (Q96SW2 whole entry, looked up): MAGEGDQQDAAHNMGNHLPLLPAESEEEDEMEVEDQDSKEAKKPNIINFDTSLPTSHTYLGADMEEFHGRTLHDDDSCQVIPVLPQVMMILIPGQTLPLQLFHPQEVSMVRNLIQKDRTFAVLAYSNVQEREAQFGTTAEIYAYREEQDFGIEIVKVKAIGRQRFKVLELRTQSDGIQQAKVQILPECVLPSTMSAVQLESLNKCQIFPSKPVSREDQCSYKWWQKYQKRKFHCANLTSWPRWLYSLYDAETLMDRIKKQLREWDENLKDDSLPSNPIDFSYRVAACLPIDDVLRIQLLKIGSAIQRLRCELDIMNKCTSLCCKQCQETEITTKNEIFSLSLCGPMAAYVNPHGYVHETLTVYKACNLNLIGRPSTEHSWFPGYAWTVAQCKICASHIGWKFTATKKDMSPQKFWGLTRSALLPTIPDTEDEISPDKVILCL

For `Cc1ncsc1-c1ccc([C@H](C)NC(=O)[C@@H]2C[C@@H](O)CN2C(=O)[C@@H](NC(=O)CCC(=O)NCCCNC(=O)c2cccc(S(=O)(=O)n3cc(C(=O)NCCCCCC(=O)Oc4ccc(NC(=O)c5ccc(-c6ccccc6)cc5)cc4NS(=O)(=O)c4ccc(F)cc4)ccc3=O)c2)C(C)(C)C)cc1`, in data set [1], the DC50 – broadly, the concentration giving 50% degradation – was 530 nM. Moreover, the Activity in data set [2] is 56.6%. Consider `O=C1CCC(N2C(=O)c3cccc(OCc4cn(CCCCCC(=O)OCc5ccc(NC(=O)c6ccc([N+](=O)[O-])o6)cc5)nn4)c3C2=O)C(=O)N1` (stereo not drawn), for which, in data set [3], the result was Active. Take `O=C1CCC(N2C(=O)c3ccc(OCc4cn(CC(=O)OCCc5ccc(NC(=O)c6ccc([N+](=O)[O-])o6)cc5)nn4)cc3C2=O)C(=O)N1` (stereo not drawn): in data set [3], the outcome was Active. Still for that read-out and setting: the value for `O=C1CCC(N2C(=O)c3cccc(OC(=O)CCCc4cn(CCCCCC(=O)Oc5ccc(NC(=O)c6ccc([N+](=O)[O-])o6)cc5)nn4)c3C2=O)C(=O)N1` (stereo not drawn) was 71%; that for `O=C1CCC(N2C(=O)c3cccc(OCc4cn(CCCC(=O)OCc5ccc(NC(=O)c6ccc([N+](=O)[O-])o6)cc5)nn4)c3C2=O)C(=O)N1` (stereo not drawn) was “Active”. Take `O=C1CCC(N2C(=O)c3ccc(OCc4cn(CCCC(=O)OCCc5ccc(NC(=O)c6ccc([N+](=O)[O-])o6)cc5)nn4)cc3C2=O)C(=O)N1` (stereo not drawn): in data set [3], the Activity was determined as 76%. Still for that read-out and setting: with `O=C1CCC(N2C(=O)c3cccc(OCc4cn(CCCC(=O)Oc5ccc(NC(=O)c6ccc([N+](=O)[O-])o6)cc5)nn4)c3C2=O)C(=O)N1` (stereo not drawn) the entry was “Active”. For `CCCCc1ccc(NC(=O)c2ccc([N+](=O)[O-])o2)cc1`, the values for the cytotoxicity at 48 h, 3.3 µM in data set [4] and in data set [5] were 68.2% and 80.1%, respectively. As to `O=C1CCC(N2C(=O)c3cccc(OCc4cn(CCCCCC(=O)Oc5ccc(NC(=O)c6ccc([N+](=O)[O-])o6)cc5)nn4)c3C2=O)C(=O)N1` (stereo not drawn), in data set [3], the result was inactive.

For the compound `CN1C(=O)CCC(N2C(=O)c3cccc(OCc4cn(CCCCCC(=O)OCCc5ccc(NC(=O)c6ccc([N+](=O)[O-])o6)cc5)nn4)c3C2=O)C1=O` (stereo not drawn), the result in data set [6] was Active. With `O=C1CCC(N2C(=O)c3cccc(OCc4cn(CC(=O)OCc5ccc(NC(=O)c6ccc([N+](=O)[O-])o6)cc5)nn4)c3C2=O)C(=O)N1` (stereo not drawn), in data set [3], the result was Active.
